According to PubChem BioAssay AID330 (DTP/NCI, 2004):
Where “and” joins values, the source holds several entries; their conditions need not be identical. Identical values can stand only once. Toxic doses and inconclusive results are not listed. How the source made its calls: active means survival T/C of 150% or more; inactive means T/C below 125% in these data.

System: P388 leukemia ip, CD2F1 mice, survival T/C
Experiment: NCI In Vivo Anticancer Drug Screen. Data for tumor model P388 Leukemia (intraperitoneal) in CD2F1 (CDF1) mice
Details: endpoint: median survival time, higher = longer survival
In short: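 Mice carrying the transplanted tumor received test compound or vehicle. Survival was recorded in each group, and the value is the treated-group measurement divided by that of the vehicle-treated control group.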

[1] = dose: 100.0 mg/kg/injection, schedule: Q04DX002 (ip), vehicle: saline
[2] = dose: 200.0 mg/kg/injection, schedule: Q04DX002 (ip), vehicle: saline
[3] = dose: 400.0 mg/kg/injection, schedule: Q04DX002 (ip), vehicle: saline
[4] = dose: 60.0 mg/kg/injection, schedule: Q01DX005 (ip), vehicle: saline with Tween-80
[5] = dose: 120.0 mg/kg/injection, schedule: Q01DX005 (ip), vehicle: saline with Tween-80
[6] = dose: 240.0 mg/kg/injection, schedule: Q01DX005 (ip), vehicle: saline with Tween-80
[7] = dose: 50.0 mg/kg/injection, schedule: Q01DX005 (ip), vehicle: Klucel (hydroxypropylcellulose) (HPC)
[8] = dose: 100.0 mg/kg/injection, schedule: Q01DX005 (ip), vehicle: Klucel (hydroxypropylcellulose) (HPC)
[9] = dose: 200.0 mg/kg/injection, schedule: Q01DX005 (ip), vehicle: Klucel (hydroxypropylcellulose) (HPC)

Measured: T/C

O=CNC(Cc1ccc(N(CCCl)CCCl)cc1)C(=O)O (stereo not given)
active: dose: 6.25 mg/kg/injection, schedule: Q01DX009 (ip), vehicle: saline sonified 159 % of control | dose: 6.6 mg/kg/injection, schedule: Q04DX003 (ip), vehicle: saline 170 % of control | dose: 10.0 mg/kg/injection, schedule: Q04DX003 (ip), vehicle: saline 160 % of control | dose: 12.5 mg/kg/injection, schedule: Q01DX009 (ip), vehicle: saline sonified 168 % of control | dose: 15.0 mg/kg/injection, schedule: Q04DX003 (ip), vehicle: saline 170 % of control | dose: 25.0 mg/kg/injection, schedule: Q01DX009 (ip), vehicle: saline sonified 213 % of control

COc1cc(-c2cnc3c(n2)c(=O)[nH]c(=O)n3C)ccc1O
inactive: [1] 104 % of control | [2] 103 % of control | [3] 95 % of control

O=C(O)C1=C(C(=O)O)C2c3ccccc3C1c1ccccc12
inactive: dose: 50.0 mg/kg/injection, schedule: Q01DX005 (ip), vehicle: saline with Tween-80 99 % of control | dose: 100.0 mg/kg/injection, schedule: Q01DX005 (ip), vehicle: saline with Tween-80 90 % of control | dose: 200.0 mg/kg/injection, schedule: Q01DX005 (ip), vehicle: saline with Tween-80 103 % of control

CCOC(=O)C(CC(=O)O)=C(c1ccccc1)c1ccccc1
inactive: dose: 50.0 mg/kg/injection, schedule: Q01DX009 (ip), vehicle: saline 107 % of control | dose: 100.0 mg/kg/injection, schedule: Q01DX009 (ip), vehicle: saline 100 % of control | dose: 200.0 mg/kg/injection, schedule: Q01DX009 (ip), vehicle: saline 107 % of control

Cc1ccc(S(=O)(=O)CC(=O)CC(=O)C(=O)Nc2ccc(Cl)cc2Cl)cc1
inactive: [4] 100 % of control | [5] 100 % of control | [6] 100 % of control

O=C([S-])N1CCCCC1.O=C([S-])N1CCCCC1.[Ni+2]
inactive: dose: 12.5 mg/kg/injection, schedule: Q01DX009 (ip), vehicle: saline with Tween-80 90 % of control | dose: 25.0 mg/kg/injection, schedule: Q01DX009 (ip), vehicle: saline with Tween-80 100 % of control | dose: 50.0 mg/kg/injection, schedule: Q01DX009 (ip), vehicle: saline with Tween-80 90 % of control

O=C(O)c1ccccc1.[Eu]
inactive: dose: 12.5 mg/kg/injection, schedule: Q01DX009 (ip), vehicle: Klucel (hydroxypropylcellulose) (HPC) 88 % of control | dose: 25.0 mg/kg/injection, schedule: Q01DX009 (ip), vehicle: Klucel (hydroxypropylcellulose) (HPC) 87 % of control | dose: 50.0 mg/kg/injection, schedule: Q01DX009 (ip), vehicle: Klucel (hydroxypropylcellulose) (HPC) 89 % of control and 92 % of control | dose: 100.0 mg/kg/injection, schedule: Q01DX009 (ip), vehicle: Klucel (hydroxypropylcellulose) (HPC) 90 % of control | dose: 200.0 mg/kg/injection, schedule: Q01DX009 (ip), vehicle: Klucel (hydroxypropylcellulose) (HPC) 89 % of control

CC(NNC(=S)N1CCCCCC1)c1ccc2ccccc2n1 (stereo not given)
inactive: [7] 111 % of control | [8] 110 % of control and 122 % of control and 95 % of control | [9] 112 % of control and 113 % of control

O=C1Nc2ccccc2S/C1=C/c1ccccc1
inactive: dose: 50.0 mg/kg/injection, schedule: Q01DX009 (ip), vehicle: gum acacia 109 % of control | dose: 100.0 mg/kg/injection, schedule: Q01DX009 (ip), vehicle: gum acacia 113 % of control | dose: 200.0 mg/kg/injection, schedule: Q01DX009 (ip), vehicle: gum acacia 97 % of control

CCOC(=N)N1[C@@H]2CCCC[C@@H]21
inactive: [1] 101 % of control | [2] 109 % of control | [3] 120 % of control

O=NNc1ccc(Oc2ccccc2)cn1
active: dose: 6.25 mg/kg/injection, schedule: Q01DX009 (ip), vehicle: saline 156 % of control

Cc1c2ccncc2c(CNCCO)c2c3ccccc3n(C)c12
inactive: dose: 5.0 mg/kg/injection, schedule: Q01DX005 (ip), vehicle: saline 110 % of control | dose: 10.0 mg/kg/injection, schedule: Q01DX005 (ip), vehicle: saline 108 % of control | dose: 20.0 mg/kg/injection, schedule: Q01DX005 (ip), vehicle: saline 110 % of control

Cc1ccc(NCCN(C)CC(C)O)c2c(=O)c3ccc(Cl)cc3sc12 (stereo not given)
inactive: [7] 102 % of control | [8] 101 % of control | [9] 95 % of control

COC(=O)C(=O)c1c(C(=O)OC)nc2nnc(N)n2c1-c1ccc(OC)cc1
inactive: [4] 100 % of control | [5] 107 % of control | [6] 96 % of control
